Reference: paper PMC12132917, “Carborane‐Based Analogs of Celecoxib and Flurbiprofen, their COX Inhibition Potential, and COX Selectivity Index” (Chemmedchem, 2025)
Where two headings read alike, the source gives them in different places. Marks after values point to notes of the source that are not given here.

Columns and labels:
[1] = target: T1, ovine COX‐1 (Ovis aries, UniProt P05979); experiment: COX Fluorescent Inhibitor Screening Assay Kit (Cayman), COX-1 inhibition; type: biochemical; details: for IC50: read-out: IC50 [μM] (95% CI) COX‐1, absolute IC50
T1 construct: purchased Cayman Chemical Company
T1 sequence (P05979 25-600): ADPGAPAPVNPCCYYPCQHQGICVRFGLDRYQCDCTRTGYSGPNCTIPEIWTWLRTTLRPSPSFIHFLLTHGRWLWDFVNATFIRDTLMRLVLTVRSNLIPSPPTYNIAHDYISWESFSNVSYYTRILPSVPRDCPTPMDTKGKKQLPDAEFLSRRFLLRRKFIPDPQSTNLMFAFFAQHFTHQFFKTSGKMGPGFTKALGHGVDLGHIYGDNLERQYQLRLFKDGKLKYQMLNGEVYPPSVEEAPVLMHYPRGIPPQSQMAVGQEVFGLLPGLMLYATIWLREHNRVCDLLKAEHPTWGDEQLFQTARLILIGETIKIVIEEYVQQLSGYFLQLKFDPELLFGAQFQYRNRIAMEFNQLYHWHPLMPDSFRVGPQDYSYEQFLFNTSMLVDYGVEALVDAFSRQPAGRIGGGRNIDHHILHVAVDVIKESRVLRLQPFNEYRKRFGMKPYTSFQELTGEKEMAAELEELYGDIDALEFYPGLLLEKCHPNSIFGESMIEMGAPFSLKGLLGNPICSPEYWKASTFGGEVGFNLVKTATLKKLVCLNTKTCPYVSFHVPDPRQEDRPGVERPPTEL
Source text: (§1) For the cyclooxygenase assays, the fluorescence‐based COX assay “COX Fluorescent Inhibitor Screening Assay Kit” (Cayman Chemical Company, Ann Arbor, MI, USA) was used according to the manufacturer's instructions. […] All concentrations have been tested at least in duplicate.

[2] = target: T2, recombinant human COX‐2 (Homo sapiens, UniProt P35354); type: biochemical; details: for IC50: read-out: IC50 [μM] (95% CI) COX‐2
T2 construct: purchased Cayman Chemical Company
T2 sequence (P35354 18-604): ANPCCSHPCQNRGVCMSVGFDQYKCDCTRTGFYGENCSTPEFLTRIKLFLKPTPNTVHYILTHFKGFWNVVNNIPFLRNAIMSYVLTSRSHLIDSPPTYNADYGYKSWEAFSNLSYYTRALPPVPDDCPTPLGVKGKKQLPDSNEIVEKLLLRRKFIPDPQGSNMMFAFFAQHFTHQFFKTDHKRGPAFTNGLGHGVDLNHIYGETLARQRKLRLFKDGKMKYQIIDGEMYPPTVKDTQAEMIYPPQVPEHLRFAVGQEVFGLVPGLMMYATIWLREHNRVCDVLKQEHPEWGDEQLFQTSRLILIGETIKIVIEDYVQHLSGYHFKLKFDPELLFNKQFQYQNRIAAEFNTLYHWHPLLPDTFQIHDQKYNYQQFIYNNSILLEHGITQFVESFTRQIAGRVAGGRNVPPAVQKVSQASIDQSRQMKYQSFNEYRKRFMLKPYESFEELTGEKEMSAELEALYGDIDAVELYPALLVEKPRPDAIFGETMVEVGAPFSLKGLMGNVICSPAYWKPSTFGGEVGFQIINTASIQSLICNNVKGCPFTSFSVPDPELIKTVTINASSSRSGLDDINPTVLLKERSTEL
Source text: as §1

[3] = Stability in DMSO/water (1:1, v/v) by HPLC-UV-MS or analytical HPLC; type: physicochemical; details: DMSO/H2O (1:1, v/v), RP-HPLC
Experimental: The stability of compounds 6, 7, 9, 10, 13a,b, and 14a,b in aqueous solution was studied by HPLC‐UV‐MS or analytical HPLC measurements as well (see Supporting Information for details, “4 HPLC Stability Determination of Compounds 6, 7, 9, 10, 13a, 13b, 14a, 14b”). All compounds except 13a were stable for at least one day (Supporting Information, section 4 ).
The stability was evaluated for all compounds in a mixture of DMSO, dried over molecular sieve, and LC‐MS grade water (1:1, v/v) with the same HPLC‐UV‐MS systems as described under “Purity Determination”. The column, eluent system, flow and MS tool were operated in the same way. For the stability determination, a few milligrams of each compound were dissolved in 1 mL DMSO. To dissolve the compounds, they were vortexed and heated up if necessary. The stock solution was further diluted with water. For that, 50–100 μL of the stock solution was transferred into a vial and the same amount of LC‐MS grade water was added. The two solvents were mixed thoroughly, and the measurement with HPLC‐UV‐MS was directly started. Additionally, measurements were performed in a varying time frame, from 15 or 20 min to 1 day. Usually, the injection volume was 10 μL, and before the measurement of the samples, a blank run with only DMSO/LC‐MS grade water (1:1, v/v) was performed. […] For the latter compounds, the aforementioned system (Agilent 1200 system) and the following gradient was used: 0–3 min 45% eluent B, 3–28 min 45%–95% eluent B, 28–34 min 95% eluent B, 34–35 min 95%–45% eluent B, then 35–40 min 45% eluent B, flow: 0.75 mL min^−1.
4 Stability Determination of Compounds 6, 7, 9, 10, 13a, 13b, 14a, 14b by HPLC A few milligrams of each compound have been dissolved in 1 mL DMSO, which was stored over molecular sieve.
50-100 µL of the DMSO solution have been transferred into a separate vial together with the same amount of LC-MS grade water. The mixture was measured directly after water addition and in time intervals from 20 min to 1 d by HPLC-UV-MS or analytical HPLC measurements. All compounds were stable for at least one day except for […]
rather for its nido-carborane analog, which was anyway the most prominent side product, no further stability measurements have been performed.
Figure S74. RP-HPLC chromatograms of blank (DMSO/H2O, black and green) and compound 6, retention time: 10.5 min, purity after 1 d: >98%.
Figure S75. RP-HPLC chromatograms of blank (DMSO/H2O, blue and pink) and compound 7, retention time: 8.3 min, purity after 1 d: >96%. […]

[4] = 100 μM, n = 2, n.i. = no inhibition (%‐inhibition < 5 %)
[5] = Inhibition at 98 μM instead of 100 μM, n = 2

| Substance | %‐inhibition at 100 [μM] (n = 2) COX‐1 ([1]; n = 2) [%] | SI = IC50(COX‐1)/IC50(COX‐2) [2] | %‐inhibition at 100 [μM] (n = 2) COX‐2 ([2]; 100 µM) [%] | purity after 1 d [3] [%] | IC50 [1] [µM] | %‐inhibition at 100 [μM] (n = 2) COX‐2 [2, 4] [%] | IC50 [μM] (95% CI) COX‐2 ([2]; absolute IC50) | IC50 ([2]; absolute IC50) [µM] | SI = IC50(COX‐1)/IC50(COX‐2) ([2]; selectivity index) | %‐inhibition (n = 2) COX‐1 [1, 5] | %‐inhibition (n = 2) COX‐2 [2, 5] |
| --- | --- | --- | --- | --- | --- | --- | --- | --- | --- | --- | --- |
| Cesium (R/S)‐2‐[2‐fluoro‐(1,1′‐biphenyl)‐4‐yl]‐N‐(7,8‐nido‐dicarbadodecahydroundecaborate(−1))‐methylpropanamide [Compound 14a] | 94 | 1.9 | 91 |  |  |  |  |  |  |  |  |
| Di‐cesium N,N‐bis[3‐(7,8‐nido‐dicarbadodecahydroundecaborate(−1))propyl]‐4‐[5‐(p‐tolyl)‐3‐(trifluoromethyl)‐1H‐pyrazol‐1‐yl]benzenesulfonamide [Compound 10] | 103 |  |  | > 99 | 3.49 | 103 | sub‐μM range | 0.34 | 10.3 |  |  |
| Cesium (R/S)‐2‐[2‐fluoro‐(1,1'‐biphenyl)‐4‐yl]‐N‐(7,8‐nido‐dicarbadodecahydroundecaborate(−1))‐ethylpropanamide [Compound 14b] | 72 | 2.7 | 80 |  |  |  |  |  |  |  |  |
| Cesium N‐[3‐(7,8‐nido‐dicarbadodecahydroundecaborate(−1))propyl]‐4‐[5‐(p‐tolyl)‐3‐(trifluoromethyl)‐1H‐pyrazol‐1‐yl]benzenesulfonamide [Compound 7] | 94 |  |  | > 96 | 11.2 | 100 |  | 8.75 | 1.28 |  |  |
| N,N‐Bis[3‐(1,2‐closo‐dicarbadodecaborane)propyl]‐4‐[5‐(p‐tolyl)‐3‐(trifluoromethyl)‐1H‐pyrazol‐1‐yl]benzenesulfonamide [Compound 9] |  |  |  | > 99 | > 320 |  |  |  |  |  |  |
| N‐[3‐(1,2‐closo‐dicarbadodecaborane)propyl]‐4‐[5‐(p‐tolyl)‐3‐(trifluoromethyl)‐1H‐pyrazol‐1‐yl]benzenesulfonamide [Compound 6] | ≤ 55 |  |  | > 98 |  | ≤ 55 |  | 120 |  | 9 ^b) % | 54 ^b) % |
